Assay results published in patent publication US20040110802A1, “Antibacterial benzoic acid derivatives” (priority 2002, published 2004).
Converted amounts (≈) assume the structure as drawn.

These compounds were tested on SAUR 9218 (assay: MIC Test Method, standard agar dilution). Conditions: agar dilution, Mueller Hinton agar, incubated overnight at 35° C.; lowest concentration that inhibits visible growth.
Format: cell-based
Summary of the method: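 MIC (μg/ml) was read as the lowest drug level without visible growth of SAUR 9218 after overnight incubation at 35 °C. Inocula of about 10^4 to 10^5 cells per spot were applied to Mueller Hinton agar containing 2-fold serial compound dilutions.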

Row | SMILES | SAUR 9218 MIC
1 | Cc1sc(C(=O)Nc2ccc(C#N)cc2C(=O)O)cc1S(=O)(=O)N(C)C(C)C(O)c1ccccc1 (stereo not shown) [drawing 953] | 32 µg/mL

Same assay, conditions: agar dilution, Mueller Hinton agar, incubated overnight at 35° C.; lowest concentration that inhibits visible growth; read-out: SAUR 9218 MIC

Row | SMILES | MIC
2 | N#Cc1ccc(NC(=O)c2noc3ccc(-c4ccccc4CO)cc23)c(C(=O)O)c1 | 0.5 µg/mL (≈ 1.21 µM)
3 | CCC(CC)C(=O)Nc1cccc2cc(C(=O)Nc3ccc(C#N)cc3C(=O)O)[nH]c12 | 1 µg/mL (≈ 2.39 µM)
4 | C=CCN(C1CCCC1)S(=O)(=O)c1cc(C(=O)Nc2ccc(C#N)cc2C(=O)O)sc1C | 8 µg/mL (≈ 16.9 µM)
5 | Cc1sc(C(=O)Nc2ccc(C#N)cc2C(=O)O)cc1S(=O)(=O)N1CCCC(C)C1 (stereo not shown) | 2 µg/mL (≈ 4.47 µM)
6 | N#Cc1ccc(NC(=O)c2ccc(SCC(=O)c3ccc4c(c3)C(=O)NCO4)nn2)c(C(=O)O)c1 | 0.5 µg/mL (≈ 1.02 µM)
7 | N#Cc1ccc(NC(=O)c2cnc(Cl)cn2)c(C(=O)O)c1 | 32 µg/mL (≈ 106 µM)
8 | C=CCn1c(C(=O)Nc2ccc(Cl)cc2C(=O)O)cc2ccccc21 | 1 µg/mL (≈ 2.82 µM)
9 | COCCOCCCSc1ccc(C(=O)Nc2ccc(Cl)cc2C(=O)O)cn1 | 4 µg/mL (≈ 9.41 µM)
10 | COCCn1c(C(=O)Nc2ccc(C#N)cc2C(=O)O)cc2ccccc21 | 0.5 µg/mL (≈ 1.38 µM)
11 | N#Cc1ccc(NC(=O)c2cc3cccc(NC(=O)CCCCc4ccccc4)c3[nH]2)c(C(=O)O)c1 | 0.25 µg/mL (≈ 0.52 µM)
12 | CCCCCCOc1cnc(C(=O)Nc2ccc(C#N)cc2C(=O)O)cn1 | 0.125 µg/mL (≈ 0.339 µM)
13 | CN(C)c1ccc2onc(C(=O)Nc3ccc(C#N)cc3C(=O)O)c2c1 | 0.25 µg/mL (≈ 0.714 µM)
14 | O=C(Nc1ccc(Br)cc1C(=O)O)c1ccc2c(c1)OCO2 | 16 µg/mL (≈ 43.9 µM)
15 | CCCCC(CC)C(=O)Nc1cccc2cc(C(=O)Nc3ccc(C#N)cc3C(=O)O)[nH]c12 (stereo not shown) | 0.5 µg/mL (≈ 1.12 µM)
16 | N#Cc1ccc(NC(=O)c2cc(-c3ccc4c(c3)OCO4)on2)c(C(=O)O)c1 | 0.125 µg/mL (≈ 0.331 µM)
17 | CC(C)Sc1ccc(C(=O)Nc2ccc(Br)cc2C(=O)O)cn1 | 1 µg/mL (≈ 2.53 µM)
18 | Cn1cc(C(=O)Nc2ccc(C#N)cc2C(=O)O)c2ccccc21 | 16 µg/mL (≈ 50.1 µM)
19 | CS(=O)(=O)Nc1ccc2onc(C(=O)Nc3ccc(C#N)cc3C(=O)O)c2c1 | 0.5 µg/mL (≈ 1.25 µM)
20 | N#Cc1ccc(NC(=O)c2cc(-c3ccccc3)on2)c(C(=O)O)c1 | 0.25 µg/mL (≈ 0.75 µM)
21 | Cc1ccc(CC(=O)Nc2cccc3cc(C(=O)Nc4ccc(C#N)cc4C(=O)O)[nH]c23)cc1 | 0.5 µg/mL (≈ 1.11 µM)

Row | SMILES | MIC
22 | N#Cc1ccc(NC(=O)c2cc3cccc(NC(=O)CCc4ccccc4)c3[nH]2)c(C(=O)O)c1 | 0.5 µg/mL (≈ 1.11 µM)
23 | COCOCC(CCc1cc(C(=O)Nc2ccc(Br)cc2C(=O)O)no1)OCOC (stereo not shown) | 8 µg/mL (≈ 16.4 µM)
24 | CCCCCCSc1cnc(C(=O)Nc2ccc(Cl)cc2C(=O)O)cn1 | 0.5 µg/mL (≈ 1.27 µM)
25 | COc1ccc(CC(=O)Nc2cccc3cc(C(=O)Nc4ccc(C#N)cc4C(=O)O)[nH]c23)cc1OC | 1 µg/mL (≈ 2.01 µM)
26 | N#Cc1ccc(NC(=O)c2cc3cccc(NC(=O)Cc4cccc5ccccc45)c3[nH]2)c(C(=O)O)c1 | 0.125 µg/mL (≈ 0.256 µM)
27 | Cc1sc(C(=O)Nc2ccc(C#N)cc2C(=O)O)cc1S(=O)(=O)N1CC(C)OC(C)C1 (stereo not shown) | 16 µg/mL (≈ 34.5 µM)
28 | N#Cc1ccc(NC(=O)c2cc3cccc(N)c3[nH]2)c(C(=O)O)c1 | 1 µg/mL (≈ 3.12 µM)
29 | O=C(O)c1cc(Br)ccc1NC(=O)c1ccnc2ccccc12 | > 128 µg/mL
30 | CC(=O)Nc1ccc(-c2cc3onc(C(=O)Nc4ccc(C#N)cc4C(=O)O)c3cc2NC(C)=O)c(C(F)(F)F)c1 | 0.03 µg/mL (≈ 0.0531 µM)
31 | COCOCC(O)C(Cc1cnc(C(=O)Nc2ccc(Br)cc2C(=O)O)cn1)OC (stereo not shown) | 128 µg/mL (≈ 264 µM)
32 | CCN(CC)S(=O)(=O)c1ccc2onc(C(=O)Nc3ccc(C#N)cc3C(=O)O)c2c1 | 0.125 µg/mL (≈ 0.283 µM)
33 | Cc1sc(C(=O)Nc2ccc(Br)cc2C(=O)O)cc1S(=O)(=O)NC1Cc2ccccc2C1 | 8 µg/mL (≈ 14.9 µM)
34 | N#Cc1ccc(NC(=O)c2nc3ccccc3[nH]2)c(C(=O)O)c1 | 4 µg/mL (≈ 13.1 µM)
35 | CN(c1ccc(Cl)cc1)S(=O)(=O)c1ccc(C(=O)Nc2ccc(Br)cc2C(=O)O)o1 | 16 µg/mL (≈ 31.1 µM)
36 | CCC(C)Sc1cnc(C(=O)Nc2ccc(Br)cc2C(=O)O)cn1 (stereo not shown) | 0.5 µg/mL (≈ 1.22 µM)
37 | Cn1c(C(=O)Nc2ccc(C#N)cc2C(=O)O)cc2cccc(-c3ccccc3F)c21 | 0.25 µg/mL (≈ 0.605 µM)
38 | CCCCCn1c(C(=O)Nc2ccc(Br)cc2C(=O)O)cc2ccccc21 | 2 µg/mL (≈ 4.66 µM)
39 | N#Cc1ccc(NC(=O)c2ncc(-c3ccccc3C(F)(F)F)o2)c(C(=O)O)c1 | 1 µg/mL (≈ 2.49 µM)
40 | N#Cc1ccc(NC(=O)c2cnc(-c3ccccc3)cn2)c(C(=O)O)c1 | 64 µg/mL (≈ 186 µM)
